Data as given in patent publication US12479827B2, “Heteroaromatic carboxamide derivatives as plasma kallikrein inhibitors” (Boehringer Ingelheim International GmbH, priority 2020, dated 2025).

Experiments:
[1] = molecular target: T1, PKK in kaolin activated human platelet poor plasma (Homo sapiens, UniProt P03952); assay: Inhibition of PKK in kaolin activated human PPP; format: biochemical; conditions: 25-750 μg/mL kaolin, global fit, text b200 calls the values IC90;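 further: readout is the rate of fluorogenic substrate cleavage in rfu per min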
T1 construct: Platelet poor plasma (PPP) obtained from human wholeblood; from tissue
T1 sequence (P03952 391-638 limits assumed): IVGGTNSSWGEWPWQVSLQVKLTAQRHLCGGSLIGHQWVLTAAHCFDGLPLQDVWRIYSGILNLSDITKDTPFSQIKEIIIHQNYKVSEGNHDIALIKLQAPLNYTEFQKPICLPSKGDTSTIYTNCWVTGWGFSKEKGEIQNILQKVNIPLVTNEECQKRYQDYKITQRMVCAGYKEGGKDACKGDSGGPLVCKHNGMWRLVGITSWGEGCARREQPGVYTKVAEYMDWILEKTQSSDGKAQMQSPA
T1 sequence (P03952 20-390 limits assumed): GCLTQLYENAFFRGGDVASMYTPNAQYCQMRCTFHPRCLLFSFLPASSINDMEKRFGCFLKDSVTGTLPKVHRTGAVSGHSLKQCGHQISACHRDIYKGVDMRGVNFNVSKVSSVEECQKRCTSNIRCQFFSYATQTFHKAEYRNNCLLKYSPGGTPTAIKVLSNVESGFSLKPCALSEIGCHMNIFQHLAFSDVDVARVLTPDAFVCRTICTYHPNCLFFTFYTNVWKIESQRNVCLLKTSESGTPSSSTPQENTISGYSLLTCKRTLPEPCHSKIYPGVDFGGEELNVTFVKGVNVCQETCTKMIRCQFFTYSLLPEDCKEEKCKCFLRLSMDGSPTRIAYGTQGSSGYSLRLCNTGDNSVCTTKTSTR
Protocol: Platelet poor plasma (PPP) obtained from human wholeblood, anticoagulated with Na-Citrate, is incubated with various concentrations of the test compound together with either 25, 75, 250, or 750 μg/mL kaolin in assay buffer for 20 min at 37° C. such that for each kaolin dose used a concentration response is obtained for the test compound.

Human PKK = molecular target: T2, Human PKK (Homo sapiens, UniProt P03952); assay: Inhibition of PKK using an endpoint assay (human PKK); format: biochemical; conditions: fluorogenic substrate H-Pro-Phe-Arg-AMC, 1 h room temperature, method names human or rat PKK, table does not say which
T2 construct: purchased Enzyme Research Laboratories
T2 sequence (P03952 20-390 limits assumed): as above
T2 sequence (P03952 391-638 limits assumed): as the sequence (P03952 391-638 limits assumed) above
In short: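 Endpoint fluorescence (ex 355 nm, em 460 nm) after stopping with 1 μM final PPACK II. Buffer: Tris 100 mM pH 7.8, NaCl 150 mM, BSA 0.1%, Tween20 0.05%, with 1% DMSO present; enzyme is human plasma kallikrein.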

SMILES | IC50 [1] | IC50 (Human PKK)
COCc1nc(N2CC3CC3C2)ccc1Cn1cnc(C(=O)N[C@@H]2CCc3c2ncn3C)c1 (stereo partly drawn) [Example 180, 1-[(6-{3-Azabicyclo[3.1.0]hexan-3-yl}-2-(methoxymethyl)pyridin-3-yl)methyl]-N-[(4R)-1-methyl-1H,4H,5H,6H-cyclopenta[d]imidazol-4-yl]-1H-imidazole-4-carboxamide] | 0.207 µM | 0.0026 µM
Cn1cnc2c1CC[C@H]2NC(=O)c1cn(Cc2ccc(N3CC4CC4C3)nc2)cn1 (stereo partly drawn) [Example 72, 1-[(6-{3-Azabicyclo[3.1.0]hexan-3-yl}pyridin-3-yl)methyl]-N-[(4R)-1-methyl-1H,4H,5H,6H-cyclopenta[d]imidazol-4-yl]-1H-imidazole-4-carboxamide] | 0.831 µM | 0.0033 µM
Cn1cnc2c1CC[C@H]2NC(=O)c1cn(Cc2ccc(N3CC4C(C3)C4(F)F)nc2Cl)nn1 (stereo partly drawn) [Example 1, 1-[(2-Chloro-6-{6,6-difluoro-3-azabicyclo[3.1.0]hexan-3-yl}pyridin-3-yl)methyl]-N-[(4R)-1-methyl-1H,4H,5H,6H-cyclopenta[d]imidazol-4-yl]-1H-1,2,3-triazole-4-carboxamide] | 0.29 µM | 0.0013 µM
CCc1nc(N2CC3C(C2)C3(F)F)ccc1Cc1ccc(C(=O)N[C@@H]2CCc3c2ncn3C)o1 (stereo partly drawn) [Example 186, 5-[(6-{6,6-difluoro-3-azabicyclo[3.1.0]hexan-3-yl}-2-ethylpyridin-3-yl)methyl]-N-[(4R)-1-methyl-1H,4H,5H,6H-cyclopenta[d]imidazol-4-yl]furan-2-carboxamide] | 0.236 µM | 0.0109 µM
Cn1cnc2c1CC[C@H]2NC(=O)c1cn(Cc2ccc(N3CC4(CC4)C3)nc2Cl)nn1 [Example 5, 1-[(6-{5-Azaspiro[2.3]hexan-5-yl}-2-chloropyridin-3-yl)methyl]-N-[(4R)-1-methyl-1H,4H,5H,6H-cyclo-penta[d]imidazol-4-yl]-1H-1,2,3-triazole-4-carboxamide] | 0.278 µM | 0.0011 µM
CCc1nc(N2CC3(CC3)C2)ccc1Cn1cnc(C(=O)N[C@@H]2CCc3c2ncn3C)c1 [Example 37, 1-[(6-{5-Azaspiro[2.3]hexan-5-yl}-2-ethylpyridin-3-yl)methyl]-N-[(4R)-1-methyl-1H,4H,5H,6H-cyclopenta[d]imidazol-4-yl]-1H-imidazole-4-carboxamide] | 0.125 µM | 0.0009 µM
Cn1cnc2c1CC[C@H]2NC(=O)c1cn(Cc2ccc(N3CC4CC4C3)cc2Br)cn1 (stereo partly drawn) [Example 204, 1-[(4-{3-azabicyclo[3.1.0]hexan-3-yl}-2-bromophenyl)methyl]-N-[(4R)-1-methyl-1H,4H,5H,6H-cyclopenta[d]imidazol-4-yl]-1H-imidazole-4-carboxamide] | 0.818 µM | 0.0015 µM
Cc1nc(N2CC3C(C2)C3(F)F)cnc1Cn1cc(C(=O)N[C@@H]2CCc3c2ncn3C)nn1 (stereo partly drawn) [Example 94, 1-[(5-{6,6-Difluoro-3-azabicyclo[3.1.0]hexan-3-yl}-3-methylpyrazin-2-yl)methyl]-N-[(4R)-1-methyl-1H,4H,5H,6H-cyclopenta[d]imidazol-4-yl]-1H-1,2,3-triazole-4-carboxamide] | 1.76 µM | 0.0108 µM
CCc1nc(N2CC3CC3C2)ccc1Cc1cc(C(=O)N[C@@H]2CCc3c2ncn3C)n(CC)n1 (stereo partly drawn) [Example 162, 3-[(6-{3-Azabicyclo[3.1.0]hexan-3-yl}-2-ethylpyridin-3-yl)methyl]-1-ethyl-N-[(4R)-1-methyl-1H,4H,5H,6H-cyclopenta[d]imidazol-4-yl]-1H-pyrazole-5-carboxamide] | 0.231 µM | 0.0011 µM
COCc1nc(N2CC3(CC3)C2)ccc1Cn1cc(C(=O)N[C@@H]2CCc3c2ncn3C)cn1 [Example 78, 1-[(6-{5-Azaspiro[2.3]hexan-5-yl}-2-(methoxymethyl)-pyridin-3-yl)methyl]-N-[(4R)-1-methyl-1H,4H,5H,6H-cyclopenta[d]imidazol-4-yl]-1H-pyrazole-4-carboxamide] | 0.317 µM | 0.0068 µM

Further compounds by falling IC50 [1], results first:

IC50 [1] | IC50 (Human PKK) | SMILES
2.78 µM | 0.0126 µM | Cc1cc(N2CC3C(C2)C3(F)F)nc(C)c1Cn1cc(C(=O)N[C@@H]2CCc3c2ncn3C)cn1 (stereo partly drawn) [Example 112, 1-[(6-{6,6-Difluoro-3-azabicyclo[3.1.0]hexan-3-yl}-2,4-dimethylpyridin-3-yl)methyl]-N-[(4R)-1-methyl-1H,4H,5H,6H-cyclopenta[d]imidazol-4-yl]-1H-pyrazole-4-carboxamide]
1.04 µM | 0.0203 µM | Cn1cnc2c1CC[C@H]2NC(=O)c1cn(Cc2cnc(N3CC4CC4C3)nc2CO)cn1 (stereo partly drawn) [Example 214, 1-[(2-{3-Azabicyclo[3.1.0]hexan-3-yl}-4-(hydroxymethyl)pyrimidin-5-yl)methyl]-N-[(4R)-1-methyl-1H,4H,5H,6H-cyclopenta[d]imidazol-4-yl]-1H-imidazole-4-carboxamide]
0.766 µM | 0.0014 µM | COc1nc(N2CC3C(C2)C3(F)F)ccc1Cn1cnc(C(=O)N[C@@H]2CCc3c2ncn3C)c1 (stereo partly drawn) [Example 97, 1-[(6-{6,6-Difluoro-3-azabicyclo[3.1.0]hexan-3-yl}-2-methoxypyridin-3-yl)methyl]-N-[(4R)-1-methyl-1H,4H,5H,6H-cyclopenta[d]imidazol-4-yl]-1H-imidazole-4-carboxamide]
0.731 µM | 0.0058 µM | Cc1nc(N2CC3C(C2)C3(F)F)ccc1Cc1cc(C(=O)N[C@@H]2CCc3c2ncn3C)c[nH]1 (stereo partly drawn) [Example 142, 5-[(6-{6,6-Difluoro-3-azabicyclo[3.1.0]hexan-3-yl}-2-methylpyridin-3-yl)methyl]-N-[(4R)-1-methyl-1H,4H,5H,6H-cyclopenta[d]imidazol-4-yl]-1H-pyrrole-3-carboxamide]
0.511 µM | 0.0016 µM | Cn1cnc2c1CC[C@H]2NC(=O)c1cc(Cc2ccc(N3CC4CC4C3)nc2CO)no1 (stereo partly drawn) [Example 149, 3-[(6-{3-Azabicyclo[3.1.0]hexan-3-yl}-2-(hydroxymethyl)pyridin-3-yl)methyl]-N-[(4R)-1-methyl-1H,4H,5H,6H-cyclopenta[d]imidazol-4-yl]-1,2-oxazole-5-carboxamide]
0.443 µM | 0.0018 µM | CCn1nc(Cc2ccc(N3CC4CC4C3)nc2C)cc1C(=O)N[C@@H]1CCc2c1ncn2C (stereo partly drawn) [Example 164, 3-[(6-{3-Azabicyclo[3.1.0]hexan-3-yl}-2-methylpyridin-3-yl)methyl]-1-ethyl-N-[(4R)-1-methyl-1H,4H,5H,6H-cyclopenta[d]imidazol-4-yl]-1H-pyrazole-5-carboxamide]
0.414 µM | 0.0008 µM | CCc1nc(N2CC3C(C2)C3(F)F)ccc1Cn1cc(C(=O)N[C@@H]2CCc3c2ncn3C)nn1 (stereo partly drawn) [Example 109, 1-[(6-{6,6-Difluoro-3-azabicyclo[3.1.0]hexan-3-yl}-2-ethylpyridin-3-yl)methyl]-N-[(4R)-1-methyl-1H,4H,5H,6H-cyclopenta[d]imidazol-4-yl]-1H-1,2,3-triazole-4-carboxamide]
0.334 µM | 0.0009 µM | Cn1cnc2c1CC[C@H]2NC(=O)c1cn(Cc2ccc(N3CC4CC4C3)nc2C(F)F)nn1 (stereo partly drawn) [Example 30, 1-[(6-{3-Azabicyclo[3.1.0]hexan-3-yl}-2-(difluoromethyl)-pyridin-3-yl)methyl]-N-[(4R)-1-methyl-1H,4H,5H,6H-cyclo-penta[d]imidazol-4-yl]-1H-1,2,3-triazole-4-carboxamide]
0.308 µM | 0.0009 µM | Cn1cnc2c1CC[C@H]2NC(=O)c1cnn(Cc2ccc(N3CC4CC4C3)nc2C(F)F)c1 (stereo partly drawn) [Example 43, 1-[(6-{3-Azabicyclo[3.1.0]hexan-3-yl}-2-(difluoromethyl)-pyridin-3-yl)methyl]-N-[(4R)-1-methyl-1H,4H,5H,6H-cyclopenta[d]imidazol-4-yl]-1H-pyrazole-4-carboxamide]
0.297 µM | 0.0006 µM | CCc1nc(N2CC3CC3C2)ccc1Cn1cc(C(=O)N[C@@H]2CCc3c2ncn3C)nn1 (stereo partly drawn) [Example 101, 1-[(6-{3-Azabicyclo[3.1.0]hexan-3-yl}-2-ethylpyridin-3-yl)methyl]-N-[(4R)-1-methyl-1H,4H,5H,6H-cyclopenta[d]imidazol-4-yl]-1H-1,2,3-triazole-4-carboxamide]
0.265 µM | 0.0025 µM | Cn1cnc2c1CC[C@H]2NC(=O)c1cn(Cc2ccc(N3CC4C(C3)C4(F)F)nc2)nn1 (stereo partly drawn) [Example 33, 1-[(6-{6,6-Difluoro-3-azabicyclo[3.1.0]hexan-3-yl}pyridin-3-yl)methyl]-N-[(4R)-1-methyl-1H,4H,5H,6H-cyclo-penta[d]imidazol-4-yl]-1H-1,2,3-triazole-4-carboxamide]
0.248 µM | 0.0008 µM | Cn1cnc2c1CC[C@H]2NC(=O)c1cc(Cc2ccc(N3CC4CC4C3)nc2C(F)F)no1 (stereo partly drawn) [Example 144, 3-[(6-{3-Azabicyclo[3.1.0]hexan-3-yl}-2-(difluoromethyl)pyridin-3-yl)methyl]-N-[(4R)-1-methyl-1H,4H,5H,6H-cyclopenta[d]imidazol-4-yl]-1,2-oxazole-5-carboxamide]
0.11 µM | 0.0017 µM | Cn1cnc2c1CC[C@H]2NC(=O)c1cn(Cc2ccc(N3CC4C(C3)C4(F)F)nc2CO)nn1 (stereo partly drawn) [Example 50, 1-[(6-{6,6-Difluoro-3-azabicyclo[3.1.0]hexan-3-yl}-2-(hydroxymethyl)pyridin-3-yl)methyl]-N-[(4R)-1-methyl-1H,4H,5H,6H-cyclopenta[d]-imidazol-4-yl]-1H-1,2,3-triazole-4-carboxamide]
0.109 µM | 0.0007 µM | Cn1cnc2c1CC[C@H]2NC(=O)c1cnn(Cc2ccc(N3CC4CC4C3)nc2CCCO)c1 (stereo partly drawn) [Example 54, 1-[(6-{3-Azabicyclo[3.1.0]hexan-3-yl}-2-(3-hydroxypropyl)-pyridin-3-yl)methyl]-N-[(4R)-1-methyl-1H,4H,5H,6H-cyclopenta[d]imidazol-4-yl]-1H-pyrazole-4-carboxamide]
